Data: patent US20230416199A1, “INHIBITORS OF AMINO ACID TRANSPORT” (ICAHN SCHOOL OF MEDICINE AT MOUNT SINAI, priority 2020, published 2023)
Each block holds one molecule with its values, some of them ahead of it.

What was measured:
Assay type in all cases: cell-based
[1] = biological target: T1, rASCT2 (Rattus norvegicus, UniProt D3ZJ25); assay: Competition experiment with alanine, rASCT2; details: second entry of the cell; for Ki: read-out: Competition Expt (h/rASCT2 Ki): rASCT2 Ki
T1 construct: expressed in transfected cells; host or cells: HEK293 (ATCC CRL-11268), transient transfection
T1 sequence (D3ZJ25 1-555): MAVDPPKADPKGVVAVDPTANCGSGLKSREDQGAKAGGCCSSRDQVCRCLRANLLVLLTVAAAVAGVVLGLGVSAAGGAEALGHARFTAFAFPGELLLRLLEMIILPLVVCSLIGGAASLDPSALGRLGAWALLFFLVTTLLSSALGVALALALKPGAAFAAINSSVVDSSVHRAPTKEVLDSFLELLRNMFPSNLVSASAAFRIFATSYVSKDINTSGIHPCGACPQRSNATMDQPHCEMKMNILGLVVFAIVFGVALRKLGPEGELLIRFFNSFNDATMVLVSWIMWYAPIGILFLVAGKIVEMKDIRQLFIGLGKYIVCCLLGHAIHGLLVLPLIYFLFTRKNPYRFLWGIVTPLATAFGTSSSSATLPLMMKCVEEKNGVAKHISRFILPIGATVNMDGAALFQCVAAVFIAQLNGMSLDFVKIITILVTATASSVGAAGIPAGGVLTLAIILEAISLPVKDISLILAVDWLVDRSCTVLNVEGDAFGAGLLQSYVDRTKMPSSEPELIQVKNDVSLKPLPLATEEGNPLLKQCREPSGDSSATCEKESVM

[2] = biological target: T2, hASCT2 (Homo sapiens, UniProt Q15758); assay: Electrophysiology (whole-cell current recording) of transfected HEK293 cells, hASCT2
T2 construct: expressed in transfected cells; host or cells: HEK293 (ATCC CRL-11268), transient transfection
T2 sequence (Q15758 1-541): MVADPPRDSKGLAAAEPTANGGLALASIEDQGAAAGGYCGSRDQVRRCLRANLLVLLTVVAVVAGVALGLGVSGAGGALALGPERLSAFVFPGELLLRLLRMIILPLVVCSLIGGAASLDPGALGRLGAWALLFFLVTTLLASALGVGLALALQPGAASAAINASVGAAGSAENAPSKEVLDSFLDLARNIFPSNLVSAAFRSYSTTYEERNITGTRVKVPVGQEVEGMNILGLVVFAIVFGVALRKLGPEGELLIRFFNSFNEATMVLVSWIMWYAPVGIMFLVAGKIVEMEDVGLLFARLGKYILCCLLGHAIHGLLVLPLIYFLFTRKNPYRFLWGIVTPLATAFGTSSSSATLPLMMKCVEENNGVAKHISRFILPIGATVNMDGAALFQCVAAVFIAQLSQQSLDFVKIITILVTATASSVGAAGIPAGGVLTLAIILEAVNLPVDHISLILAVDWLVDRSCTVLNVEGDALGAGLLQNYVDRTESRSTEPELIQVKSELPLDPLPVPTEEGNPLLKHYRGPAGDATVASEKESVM
Method: (§1) Human embryonic kidney 293 (HEK293, ATCC CRL-11268) cells were cultured in DMEM media supplemented with 10% (v v) fetal bovine serum (FBS), 2 mM glutamine, 1% penicillin streptomycin solution, 1 mM sodium pyruvate and non-essential amino acids. Cells were maintained at 37° C. in a fully humidified atmosphere containing 5% CO2. rASCT2, hASCT2, hASCT1, EAAT1, EAAT2, EAAC1, EAAT5 and YFP complementary DNAs were each used to transiently transfect HEK293 using POLYPLUS Jet-prime transfection reagent. Cells were analyzed using electrophysiological techniques 24-40 hours after transfection.
(§2) Stock solutions of inhibitor was prepared in dimethyl sulfoxide (DMSO) up to 100 mM. Dilutions to working concentrations were made using external buffer. […] For rASCT2, hASCT2 and hASCT1, external buffer contained 140 mM NaCl, 2 mM MgCl2, 2 mM CaCl2), and 10 mM HEPES, pH 7.40 while internal pipette solution comprised of 130 mM NaSCN, 2 mM MgCl2, 10 mM EGTA, 10 mM HEPES and 10 mM alanine, pH 7.40. For specificity experiments with EAAT1, EAAT2, EAAC1 and EAAT5, internal solution contained 10 mM glutamate instead of alanine. Compounds were applied to HEK293 cells expressing DNA of interest suspended from a current recording electrode in whole cell configuration through a rapid solution exchange device. Cells are immersed in external buffer bath used to dissolve the inhibitors. The open pipette resistance was between 3 and 6 MΩ. Series resistance was not compensated in these experiments due to relatively small currents. Currents traces were recorded using an Adams and List EPC7 amplifier and digitized using a Molecular Devices Digidata A/D converter.
(§3) Linear and nonlinear curve fitting of the experimental data were analyzed using MicroCal Origin software. Nonlinear dose-response relationships were fitted with a Michaelis-Menten-like equation to obtain apparent Ki values in the absence of substrate (see TABLE 2 for Ki values). The figures show representative current traces and dose-response curves for hACST2 and rASCT2, used to obtain Ki values in TABLE 2 for compound SN 40. At least four experiments were performed with at least three different cells. Error bars in all graphs, e.g., in FIG. 1B and FIG. 1C and tables (Ki values) represent mean±SD.

[3] = biological target: T3, hASCT1 (Homo sapiens, UniProt P43007); assay: Electrophysiology (whole-cell current recording) of transfected HEK293 cells, hASCT1; details: Table 3, dihydroxyproline derivatives
T3 construct: expressed in transfected cells; host or cells: HEK293 (ATCC CRL-11268), transient transfection
T3 sequence (P43007 1-532): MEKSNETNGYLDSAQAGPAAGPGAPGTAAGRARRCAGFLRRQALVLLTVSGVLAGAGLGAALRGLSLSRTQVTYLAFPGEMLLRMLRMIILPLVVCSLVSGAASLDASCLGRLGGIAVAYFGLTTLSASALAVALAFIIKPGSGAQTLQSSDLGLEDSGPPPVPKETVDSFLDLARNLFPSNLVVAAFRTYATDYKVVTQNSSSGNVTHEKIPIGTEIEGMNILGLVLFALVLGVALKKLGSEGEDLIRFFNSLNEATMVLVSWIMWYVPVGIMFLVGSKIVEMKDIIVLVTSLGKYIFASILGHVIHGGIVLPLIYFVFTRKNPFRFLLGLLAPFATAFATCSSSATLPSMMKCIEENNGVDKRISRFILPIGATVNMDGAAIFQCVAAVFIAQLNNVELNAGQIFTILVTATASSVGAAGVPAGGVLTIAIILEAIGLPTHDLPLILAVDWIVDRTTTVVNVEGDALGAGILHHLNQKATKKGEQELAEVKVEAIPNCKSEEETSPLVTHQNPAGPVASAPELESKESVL
Method: as §1, §2, §3

[4] = biological target: T2, hASCT2; assay: Competition experiment with alanine, hASCT2; details: first entry of the cell; for Ki: read-out: Competition Expt (h/rASCT2 Ki): hASCT2 Ki
[5] = biological target: T1, rASCT2; assay: Electrophysiology (whole-cell current recording) of transfected HEK293 cells, rASCT2; details: for Ki: apparent Ki in the absence of substrate, HEK293, mean ± SD, read-out: Ki rASCT2
Method: as §1, §2, §3

[6] = biological target: T4, EAAC1 (UniProt P51907); assay: Electrophysiology specificity experiment in transfected HEK293 cells, EAAC1; details: apparent Ki, HEK293, internal solution 10 mM glutamate, mean ± SD
T4 construct: Ki EAAC1; other: apparent Ki, HEK293, internal solution 10 mM glutamate, mean ± SD
T4 sequence (P51907 1-523): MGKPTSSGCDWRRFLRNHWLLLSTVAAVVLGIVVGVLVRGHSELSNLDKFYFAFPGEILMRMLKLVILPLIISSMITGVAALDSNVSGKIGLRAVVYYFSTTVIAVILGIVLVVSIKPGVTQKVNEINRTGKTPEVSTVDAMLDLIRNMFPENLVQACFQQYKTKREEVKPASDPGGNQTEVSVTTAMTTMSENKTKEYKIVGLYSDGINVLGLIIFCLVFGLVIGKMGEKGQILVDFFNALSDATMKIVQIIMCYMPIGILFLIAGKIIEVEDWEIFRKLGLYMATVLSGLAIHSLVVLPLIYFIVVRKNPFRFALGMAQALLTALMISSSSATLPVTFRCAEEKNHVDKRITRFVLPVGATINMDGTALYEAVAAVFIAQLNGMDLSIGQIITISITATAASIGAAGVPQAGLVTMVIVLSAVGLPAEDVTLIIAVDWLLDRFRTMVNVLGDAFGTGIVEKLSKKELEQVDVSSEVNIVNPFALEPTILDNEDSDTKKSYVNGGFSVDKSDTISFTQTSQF
Method: Cells were maintained at 37° C. in a fully humidified atmosphere containing 5% CO2. rASCT2, hASCT2, hASCT1, EAAT1, EAAT2, EAAC1, EAAT5 and YFP complementary DNAs were each used to transiently transfect HEK293 using POLYPLUS Jet-prime transfection reagent. Cells were analyzed using electrophysiological techniques 24-40 hours after transfection.
as §2
as §3, with “The figures show representative current traces and dose-response curves for hACST2 and rASCT2, used to obtain Ki values in TABLE 2 for compound SN 40.” left out

[7] = biological target: T5, EAAT1 (Homo sapiens, UniProt P43003); assay: Electrophysiology specificity experiment in transfected HEK293 cells, EAAT1; details: apparent Ki, HEK293, internal solution 10 mM glutamate, mean ± SD
T5 construct: expressed in transfected cells; host or cells: HEK293 (ATCC CRL-11268), transient transfection
Method: as §1, §2, §3

[8] = biological target: T6, EAAT2 (Homo sapiens, UniProt P43004); assay: Electrophysiology specificity experiment in transfected HEK293 cells, EAAT2; details: apparent Ki, HEK293, internal solution 10 mM glutamate, mean ± SD; read-out: Ki EAAT2
T6 construct: expressed in transfected cells; host or cells: HEK293 (ATCC CRL-11268), transient transfection
Method: as §1, §2, §3

[9] = biological target: T7, EAAT5 (Homo sapiens, UniProt O00341); assay: Electrophysiology specificity experiment in transfected HEK293 cells, EAAT5; details: apparent Ki, HEK293, internal solution 10 mM glutamate, mean ± SD
T7 construct: expressed in transfected cells; host or cells: HEK293 (ATCC CRL-11268), transient transfection
Method: as §1, §2, §3

[10] = Table 3, dihydroxyproline derivatives
[11] = apparent Ki in the absence of substrate, HEK293, mean ± SD, read-out: Ki hASCT2

T5 sequence (P43003 whole entry, species assumed): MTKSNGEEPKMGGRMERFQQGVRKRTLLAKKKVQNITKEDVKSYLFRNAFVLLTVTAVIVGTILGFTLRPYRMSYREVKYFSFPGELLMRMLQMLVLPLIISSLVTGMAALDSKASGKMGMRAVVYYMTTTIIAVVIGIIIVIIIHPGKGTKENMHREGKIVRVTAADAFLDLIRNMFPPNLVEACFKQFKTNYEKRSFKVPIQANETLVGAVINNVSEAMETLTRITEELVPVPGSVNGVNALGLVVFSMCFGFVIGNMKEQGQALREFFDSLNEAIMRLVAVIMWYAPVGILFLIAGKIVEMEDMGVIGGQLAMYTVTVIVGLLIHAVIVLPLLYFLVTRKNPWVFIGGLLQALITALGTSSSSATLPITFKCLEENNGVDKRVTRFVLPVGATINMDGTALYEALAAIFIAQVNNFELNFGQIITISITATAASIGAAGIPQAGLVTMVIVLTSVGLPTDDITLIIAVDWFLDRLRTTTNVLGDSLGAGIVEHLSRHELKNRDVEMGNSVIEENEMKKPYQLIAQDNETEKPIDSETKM
T7 sequence (O00341 whole entry, species assumed): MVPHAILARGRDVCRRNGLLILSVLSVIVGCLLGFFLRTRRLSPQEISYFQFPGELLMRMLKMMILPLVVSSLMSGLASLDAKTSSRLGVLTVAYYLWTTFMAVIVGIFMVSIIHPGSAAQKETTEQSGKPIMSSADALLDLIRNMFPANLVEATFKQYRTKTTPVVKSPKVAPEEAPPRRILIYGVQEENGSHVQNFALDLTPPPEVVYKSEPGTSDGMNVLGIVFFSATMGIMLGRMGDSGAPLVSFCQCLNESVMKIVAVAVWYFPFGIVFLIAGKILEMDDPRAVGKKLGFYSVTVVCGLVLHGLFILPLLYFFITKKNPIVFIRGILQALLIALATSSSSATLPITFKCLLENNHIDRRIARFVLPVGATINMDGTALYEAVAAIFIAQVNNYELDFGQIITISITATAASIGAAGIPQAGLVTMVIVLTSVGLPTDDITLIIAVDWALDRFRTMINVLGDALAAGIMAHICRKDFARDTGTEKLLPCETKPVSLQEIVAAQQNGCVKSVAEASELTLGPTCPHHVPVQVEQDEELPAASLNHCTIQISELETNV
T6 sequence (P43004 whole entry, species assumed): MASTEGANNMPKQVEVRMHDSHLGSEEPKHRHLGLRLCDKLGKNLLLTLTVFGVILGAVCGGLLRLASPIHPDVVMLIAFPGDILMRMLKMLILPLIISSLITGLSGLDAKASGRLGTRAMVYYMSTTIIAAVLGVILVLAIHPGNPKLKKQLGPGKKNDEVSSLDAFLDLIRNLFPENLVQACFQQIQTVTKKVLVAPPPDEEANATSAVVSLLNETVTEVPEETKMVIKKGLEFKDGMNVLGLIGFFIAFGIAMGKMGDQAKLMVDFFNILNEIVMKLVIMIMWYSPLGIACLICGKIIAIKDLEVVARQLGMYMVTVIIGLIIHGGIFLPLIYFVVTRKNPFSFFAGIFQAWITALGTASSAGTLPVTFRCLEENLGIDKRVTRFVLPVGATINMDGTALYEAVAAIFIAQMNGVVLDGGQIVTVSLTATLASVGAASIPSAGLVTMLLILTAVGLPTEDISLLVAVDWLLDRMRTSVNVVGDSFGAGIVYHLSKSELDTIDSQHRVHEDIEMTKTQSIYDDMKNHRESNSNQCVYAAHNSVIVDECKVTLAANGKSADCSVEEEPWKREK

Competition Expt % block (given as a decimal): rASCT2 ([1]; 0.5 mM ala, decimal fraction): 0
Ki ([2]; Table 3, dihydroxyproline derivatives, read-out: Ki All DNA: hASCT2): 115 µM
Ki All DNA: hASCT1 [3]: NA, NC
Competition Expt % block (given as a decimal): hASCT2 ([4]; 0.5 mM ala, decimal fraction): 0
Structure (SMILES): O=C(OC[C@]1(O)CN[C@H](C(=O)O)C1)c1ccc(-c2ccc(C(F)(F)F)cc2)cc1 [SN67]

Competition Expt % block (given as a decimal): rASCT2 ([1]; 0.5 mM ala, decimal fraction): 0.5
Ki ([1]; 0.5 mM ala): 12.9 µM
Competition Expt % block (given as a decimal): hASCT2 ([4]; 0.5 mM ala, decimal fraction): 0.5
Ki ([4]; 0.5 mM ala): 20.3 µM
Structure (SMILES): O=C(O[C@@]1(CO)CN[C@H](C(=O)O)C1)c1ccc(-c2ccccc2)cc1 [SN77]

Competition Expt % block (given as a decimal): rASCT2 ([1]; 1 mM ala): full
Ki ([1]; 1 mM ala): 12.8 µM
Ki All DNA: rASCT2 [5, 10]: Very Low
Ki All DNA: hASCT2 [2, 10]: Very Low
Ki ([3]; read-out: Ki All DNA: hASCT1): 3.06 µM
Competition Expt % block (given as a decimal): hASCT2 ([4]; 1 mM ala): full
Ki ([4]; 1 mM ala): 19.2 µM
Structure (SMILES): O=C(OC[C@@]1(O)CN[C@H](C(=O)O)C1)c1ccc(-c2ccc(F)cc2)cc1 [SN58]

Ki [5]: 1.34 ± 0.1 µM
Ki [2, 11]: 1.61 ± 0.2 µM
Ki [6]: 20.1 ± 6.2 µM
Ki [7]: 2.71 ± 0.7 µM
Structure (SMILES): O=C(O)[C@H]1NC[C@@H](NCc2ccc(-c3ccccc3)cc2)[C@@H]1O [SN 50]

Ki [5]: 7.29 ± 1.8 µM
Ki [2, 11]: 2.42 ± 0.1 µM
Ki [8]: 5.55 ± 1.7 µM
Ki [6]: 24.4 ± 2.5 µM
Ki [9]: 5.55 ± 0.7 µM
Ki [7]: 2.94 ± 0.4 µM
Structure (SMILES): O=C(O)[C@@H]1C[C@H](NCc2ccc(-c3ccccc3)cc2)CN1 [SN 40]
